Measured values: patent publication US20060122152A1, “Heparin for the treatment of ocular pathologies” (priority 2004, published 2006)

Columns and labels:
[1] = system: corneal neovascularization; test: Silver nitrate corneal burn in rat eyes: graded inhibition of neovascularization (Example 1); format: in vivo; conditions: single agents topically applied twice a day; doxycycline about 1 to about 20 mg/ml, LMWH about 10 mg/ml, triamcinolone about 4 mg/ml; compared to controls
Description: Artificial corneal burns were induced in rat eyes to determine the effects of doxycycline, steroids, and low molecular weight heparin, alone and in combinations, on corneal neovascularization.
The presence of new vessels (neovascularization) and the extent of new vessel formation was assessed by split lamp photography and histology. Inhibition of vessel proliferation was evaluated by measuring vessel progression from the outer cornea (corneal limbus) into the cornea. A numerical rating system was used to quantitate the degree of inhibition (+, ++, and +++ inhibition), with “+ inhibition” indicating inhibition one-third of the distance from the limbus of the cornea to the center; “++ inhibition” indicating inhibition two-thirds of the distance from the limbus to the center; “+++ inhibition” indicating complete inhibition of vessels between the limbus and the center; and the designation “± inhibition” indicating an intermediate degree of inhibition (e.g, less than +, ++, or +++).

[2] = system: corneal neovascularization; test: Silver nitrate cauterization, two drug combinations, percentage area of corneal neovascularization (Example 3); format: in vivo, Long Evans rats; conditions: for effect on corneal neovascularization as individual agents (in words): flurbiprofen 0.03% w/v, LMWH 10 mg/ml, data not shown
Excerpt: Artificial corneal burns were induced in thirty-two eyes belonging to thirty-two Long Evans rats to determine the effects of doxycycline or another tetracycline derivative and low molecular weight heparin, doxycycline or another tetracycline derivative, and flurbiprofen, or flurbiprofen and low molecular weight heparin, on corneal neovascularization. All the eyes were examined to exclude any eyes with corneal scars and/or neovascularization prior to induction.
Neovascularization was induced in all eyes using silver nitrate cauterization. The animals were first anesthetized by intraperitoneal injection of a mixture of ketamine hydrochloride (25 mg/kg) with xylazine hydrochloride (5 mg/kg). The cornea was then anesthetized by a drop of 0.5% proparacaine and allowed to dry.
Group 1 (number of animals, n=8) received a 1:1 combination of 0.03% flurbiprofen sodium ophthalmic solution (Allergan, Irvine Calif.) and 10 mg/ml low molecular weight heparin (Enoxaparin, Aventis Pharmaceuticals Inc., Bridgewater N.J.); an actual concentration of 0.015% flurbiprofen with 5 mg/ml low molecular weight heparin. […] Group 3 (n=8) received a 1:1 combination of 20 mg/ml doxycycline and 10 mg/ml low molecular weight heparin; an actual concentration of 10 mg/ml doxycycline with 5 mg/ml low molecular weight heparin. Group 4 (n=8) received balanced salt solution (control). The drops were applied topically immediately after cauterization; treatments were administered two times per day for seven days.
The presence of new vessels (neovascularization) and the extent of new vessel formation was assessed by slit lamp photography and histology. Inhibition of vessel proliferation was evaluated by measuring vessel progression from the outer cornea (corneal limbus) into the cornea. As previously described, it will be appreciated that any reduction of new vessel proliferation and/or regression of existing vessels is therapeutic, and that complete inhibition and/or regression is not required, and also that reduction includes regression of existing vessels.
The extent of corneal neovascularization was determined by slit lamp microscopy with photography (SL-7E, Topcon, Tokyo Japan) on day seven after cauterization. The animals were euthanized in a carbon dioxide chamber under deep general anesthesia. […]
Corneal neovascularization was assessed by scanning (Cano scan 9900F, Canon, Tokyo Japan) the slit lamp photographs into high resolution digital images. […] The percentage area of the cornea covered by the corneal scar in each eye was also determined. […]
Statistical analysis was performed using Statistical Analysis System (SPSS 11.5) software. The difference between the groups was determined using Mann-Whitney U Analysis test; a p value less than 0.05 was considered significant.

[3] = system: corneal neovascularization; test: Silver nitrate cauterization, single agents, percent area of neovascularization and scar (Example 4); format: in vivo, Long Evans pigmented rats; conditions: for NV area compared to the control group, statistical significance (in words): GLM with Tukey's studentized range test, p≦0.05; for Percent Area Of Neovascularization Mean +/− SD: day 7, topical two times daily for 7 days, LMWH 10 mg/ml, ascomycin 50 μg/ml, flurbiprofen 0.03%, doxycycline 20 mg/ml, triamcinolone acetonide 4 mg/ml, normal saline 74.9 +/− 9.2; for mean of percent area (neovascularization): day 7, same treatments, control group 74.9%±9.2%, FIG. 6; for neovascularization on slit lamp photograph (in words): seven days after induction of corneal burn, FIGS. 8A-8C

| Compound | inhibition of neovascularization [1] | effect on corneal neovascularization as individual agents (in words) [2] | NV area compared to the control group, statistical significance (in words) [3] | Percent Area Of Neovascularization Mean +/− SD [3] | mean of percent area (neovascularization) [3] | effect on corneal neovascularization as individual agent (in words) ([2]; doxycycline at 10 mg/ml) | effect on corneal neovascularization as individual agent (in words) ([2]; doxycycline at 20 mg/ml, p<0.05%) | neovascularization on slit lamp photograph (in words) [3] | histopathology of corneal stroma (in words) ([3]; H&E 100X, FIG. 9B) |
| --- | --- | --- | --- | --- | --- | --- | --- | --- | --- |
| low molecular weight heparin | + | did not significantly decrease | no statistically significant differences | 66.7 +/− 9.9% | 66.7%±9.9% |  |  |  |  |
| CC1c2cccc(O)c2C(=O)C2=C(O)C3(O)C(=O)C(C(N)=O)=C(O)C(N(C)C)C3C(O)C21.O (stereo not shown) [doxycycline, 4-(dimethylamino)-1,4,4a,5,5a,6,11,12a-octahydro3,5,10,12,12a-pentahydroxy-6-methyl-1,11-dioxo-2-naphthacenecarboxamide monohydrate] | + |  | significant reduction | 35.5 +/− 29.1% | 35.5%±29.1% | not | did significantly inhibit | neovascularization is less prominent than in control group |  |
| CC[C@@H]1/C=C(\C)C[C@H](C)C[C@H](OC)[C@H]2O[C@@](O)(C(=O)C(=O)N3CCCC[C@H]3C(=O)O[C@H](/C(C)=C/[C@@H]3CC[C@@H](O)[C@H](OC)C3)[C@H](C)[C@@H](O)CC1=O)[C@H](C)C[C@@H]2OC [ascomycin] |  |  | no statistically significant differences |  | 56.0%±22.4% |  |  |  |  |
| CC1(C)O[C@@H]2C[C@H]3[C@@H]4CCC5=CC(=O)C=C[C@]5(C)[C@@]4(F)[C@@H](O)C[C@]3(C)[C@]2(C(=O)CO)O1 [triamcinolone, 9α-fluoro-11 13,16a,17,21 tetra hydroxy-pregna-1,4diene-3,20-dione cyclic 16,17-acetal with acetone] | ++ |  | significant reduction | 13.3 +/− 7.2% | 13.3%±7.1% |  |  | relatively small neovascular area | avascular stroma |
| CC(C(=O)[O-])c1ccc(-c2ccccc2)c(F)c1.O.O.[Na+] (racemic) [flurbiprofen, sodium (±)-2-(2-fluoro-4-biphenylyl)-propionate dihydrate] |  | did not significantly decrease | no statistically significant differences | 50.6 +/− 18.7% | 50.5%±18.7% |  |  | neovascularization is quite prominent |  |
